# In ChEMBL document CHEMBL1201862, “PubChem BioAssay data set” (2004):
# The source made the active and inactive calls.
# How the values were obtained:
# [1] = target: T1, Cytochrome P450 1A2 (Homo sapiens, UniProt P05177);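 also: PubChem cytochrome P450 panel assay, CYP1A2 panel member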
# T1 sequence (P05177 whole entry): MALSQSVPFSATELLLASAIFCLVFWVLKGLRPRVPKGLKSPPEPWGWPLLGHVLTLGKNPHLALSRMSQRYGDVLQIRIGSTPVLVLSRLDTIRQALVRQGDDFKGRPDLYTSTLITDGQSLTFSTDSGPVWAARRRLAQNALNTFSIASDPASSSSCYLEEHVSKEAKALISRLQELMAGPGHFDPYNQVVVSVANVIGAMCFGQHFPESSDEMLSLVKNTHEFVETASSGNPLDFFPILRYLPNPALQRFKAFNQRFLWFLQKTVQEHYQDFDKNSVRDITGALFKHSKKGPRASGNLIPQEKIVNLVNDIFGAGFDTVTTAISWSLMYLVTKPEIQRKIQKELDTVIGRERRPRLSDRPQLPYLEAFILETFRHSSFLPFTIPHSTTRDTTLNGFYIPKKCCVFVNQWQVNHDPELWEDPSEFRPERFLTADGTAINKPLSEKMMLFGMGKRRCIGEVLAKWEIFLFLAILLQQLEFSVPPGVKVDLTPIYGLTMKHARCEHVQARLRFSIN
# [2] = target: T2, Rac GTPase-activating protein 1 (Homo sapiens, UniProt Q9H0H5); assay: MgcRacGAP GTPase-activating activity inhibitors, confirmation, biochemical, ADP Hunter fluorescence, primary and confirmatory (AID 624330); assay type: functional
# T2 sequence (Q9H0H5 whole entry): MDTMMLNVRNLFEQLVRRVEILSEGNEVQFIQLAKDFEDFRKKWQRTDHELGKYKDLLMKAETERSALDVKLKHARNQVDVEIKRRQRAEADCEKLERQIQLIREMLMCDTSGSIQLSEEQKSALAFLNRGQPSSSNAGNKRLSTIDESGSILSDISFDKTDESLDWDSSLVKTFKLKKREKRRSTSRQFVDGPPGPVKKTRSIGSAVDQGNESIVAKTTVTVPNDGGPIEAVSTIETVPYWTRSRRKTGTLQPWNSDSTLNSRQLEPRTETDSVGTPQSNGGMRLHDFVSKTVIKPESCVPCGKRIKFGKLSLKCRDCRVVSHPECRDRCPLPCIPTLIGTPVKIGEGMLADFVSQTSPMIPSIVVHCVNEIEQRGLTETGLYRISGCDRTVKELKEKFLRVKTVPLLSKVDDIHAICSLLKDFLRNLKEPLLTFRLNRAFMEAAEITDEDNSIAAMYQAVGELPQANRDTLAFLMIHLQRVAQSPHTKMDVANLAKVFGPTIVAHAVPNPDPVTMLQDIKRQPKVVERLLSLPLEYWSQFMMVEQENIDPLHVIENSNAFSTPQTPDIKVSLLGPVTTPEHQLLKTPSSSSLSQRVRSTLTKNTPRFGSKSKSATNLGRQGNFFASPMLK
# [3] = target: Cytochrome P450 3A4 (Homo sapiens, UniProt P08684);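 also: CYP3A4 tested as one member of a cytochrome P450 panel screen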
# [4] = target: Cytochrome P450 2D6 (Homo sapiens, UniProt P10635);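 also: CYP2D6 member of a cytochrome P450 panel assay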
# [5] = test system: Streptococcus sp. 'group A'; assay: growth inhibition of control SK(-) GAS strain, dose response, counter-screen for streptokinase expression inhibitor project, luminescence, kanamycin, BacTiterGlo, confirmation (AID 1900); assay type: functional, organism-based
# [6] = target: T3, Streptokinase A (Streptococcus pyogenes serotype M1, UniProt P10520); assay: S. pyogenes streptokinase expression inhibitors, potency, dose response, plasminogen activation absorbance, OD405 (AID 1914); assay type: functional, Streptococcus pyogenes M1 GAS;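 also: secreted streptokinase activity via plasminogen activation per viability signal from cell pellet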
# T3 sequence (P10520 whole entry): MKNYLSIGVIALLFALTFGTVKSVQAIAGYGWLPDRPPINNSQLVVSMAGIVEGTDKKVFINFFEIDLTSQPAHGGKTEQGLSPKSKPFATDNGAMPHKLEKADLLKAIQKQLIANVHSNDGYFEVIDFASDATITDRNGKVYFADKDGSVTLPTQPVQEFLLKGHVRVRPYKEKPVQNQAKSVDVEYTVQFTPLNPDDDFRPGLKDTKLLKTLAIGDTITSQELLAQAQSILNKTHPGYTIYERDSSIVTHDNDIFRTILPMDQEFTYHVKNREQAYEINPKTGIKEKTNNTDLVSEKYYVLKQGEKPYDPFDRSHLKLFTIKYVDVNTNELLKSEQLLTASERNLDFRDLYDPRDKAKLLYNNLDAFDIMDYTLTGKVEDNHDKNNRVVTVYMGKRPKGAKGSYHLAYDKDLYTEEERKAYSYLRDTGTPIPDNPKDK
# [7] = test system: INS1; assay: beta cell apoptosis inhibitors, cytokine rescue, dose response, luminescence, retest (AID 449756); assay type: functional, cell-based; details: Rattus norvegicus;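 also: cell death triggered by IL-1 beta plus TNF-alpha plus IFN-gamma mixture; protective hits raise ATP signal compared with cytokine alone wells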
# [8] = test system: Streptococcus; assay: Group A Streptococcus viability loss, dose response, counter-screen for streptokinase expression inhibitor project, luminescence, BacTiterGlo (AID 1915); assay type: functional, organism-based;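 also: potency for reduction of bacterial viability or growth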
# [9] = target: T4, Corticotropin-releasing factor receptor 2/Corticotropin-releasing factor-binding protein (Homo sapiens, UniProt P24387+Q13324); assay: activators of CRF receptor 2 with binding protein – uHTS hits, confirmation (AID 602473); assay type: functional; details: read-out: EC50_Mean
# T4 sequence (Q13324 whole entry): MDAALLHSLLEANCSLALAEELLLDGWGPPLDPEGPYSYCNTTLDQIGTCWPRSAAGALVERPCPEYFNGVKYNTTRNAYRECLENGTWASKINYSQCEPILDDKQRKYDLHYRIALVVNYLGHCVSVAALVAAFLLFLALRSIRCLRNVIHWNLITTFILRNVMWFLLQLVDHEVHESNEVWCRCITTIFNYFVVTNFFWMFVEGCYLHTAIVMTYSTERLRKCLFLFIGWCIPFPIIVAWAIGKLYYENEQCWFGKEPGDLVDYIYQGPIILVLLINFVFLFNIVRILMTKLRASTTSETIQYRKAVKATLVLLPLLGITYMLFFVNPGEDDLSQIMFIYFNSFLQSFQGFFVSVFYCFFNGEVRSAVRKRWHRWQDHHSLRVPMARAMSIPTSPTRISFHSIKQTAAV
# T4 sequence (P24387 whole entry): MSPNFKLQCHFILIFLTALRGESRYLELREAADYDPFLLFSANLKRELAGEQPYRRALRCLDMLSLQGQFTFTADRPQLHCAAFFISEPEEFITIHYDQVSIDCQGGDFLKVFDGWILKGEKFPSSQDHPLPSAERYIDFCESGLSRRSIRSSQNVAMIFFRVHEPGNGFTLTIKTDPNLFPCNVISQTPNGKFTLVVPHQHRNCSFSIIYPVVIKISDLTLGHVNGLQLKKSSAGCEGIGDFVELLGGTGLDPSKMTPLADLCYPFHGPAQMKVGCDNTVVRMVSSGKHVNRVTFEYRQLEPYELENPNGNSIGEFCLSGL
# [10] = target: T4, Corticotropin-releasing factor receptor 2/Corticotropin-releasing factor-binding protein; assay: Dose Response confirmation of uHTS hits for small molecule antagonists of the CRF-binding protein and CRF-R2 receptor complex.; assay type: functional; details: read-out: IC50_Mean
# [11] = target: Cytochrome P450 2C19 (Homo sapiens, UniProt P33261); assay: Cytochrome panel assay with activity outcomes. Panel member name: p450-cyp2c19 Compounds with AC50 equal or less than 10 uM are considered active; assay type: functional; details: read-out: AC50
# [12] = target: Cytochrome P450 2C9 (Homo sapiens, UniProt P11712)
# Chain of Cytochrome P450 2C9 (P11712 whole entry): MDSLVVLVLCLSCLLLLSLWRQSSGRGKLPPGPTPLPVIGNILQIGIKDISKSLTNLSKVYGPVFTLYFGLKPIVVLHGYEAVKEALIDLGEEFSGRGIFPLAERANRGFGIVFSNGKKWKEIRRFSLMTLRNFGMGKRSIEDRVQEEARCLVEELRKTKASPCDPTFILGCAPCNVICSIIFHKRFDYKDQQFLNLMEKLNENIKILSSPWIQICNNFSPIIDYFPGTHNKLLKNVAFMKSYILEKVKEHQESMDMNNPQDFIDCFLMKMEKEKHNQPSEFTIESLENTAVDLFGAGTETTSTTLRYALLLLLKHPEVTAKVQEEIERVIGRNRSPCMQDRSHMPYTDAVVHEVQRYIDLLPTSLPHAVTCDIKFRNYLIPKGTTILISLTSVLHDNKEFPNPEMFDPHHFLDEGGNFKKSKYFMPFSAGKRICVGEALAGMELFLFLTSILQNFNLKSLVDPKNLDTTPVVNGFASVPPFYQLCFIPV
# Chain of Cytochrome P450 3A4 (P08684 whole entry): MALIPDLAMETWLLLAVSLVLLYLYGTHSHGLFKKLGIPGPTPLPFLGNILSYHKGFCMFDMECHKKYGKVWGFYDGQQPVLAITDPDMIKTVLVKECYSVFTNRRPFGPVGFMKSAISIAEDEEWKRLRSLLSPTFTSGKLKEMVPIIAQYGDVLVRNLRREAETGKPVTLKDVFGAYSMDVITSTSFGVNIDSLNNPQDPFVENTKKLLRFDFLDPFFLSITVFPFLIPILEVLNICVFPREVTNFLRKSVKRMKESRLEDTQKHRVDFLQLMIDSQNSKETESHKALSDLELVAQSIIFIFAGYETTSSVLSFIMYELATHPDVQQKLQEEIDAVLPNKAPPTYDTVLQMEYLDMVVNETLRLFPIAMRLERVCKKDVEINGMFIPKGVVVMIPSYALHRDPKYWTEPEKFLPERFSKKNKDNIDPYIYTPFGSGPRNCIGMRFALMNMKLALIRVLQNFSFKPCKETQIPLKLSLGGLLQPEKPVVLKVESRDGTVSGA
# Chain of Cytochrome P450 2D6 (P10635 whole entry): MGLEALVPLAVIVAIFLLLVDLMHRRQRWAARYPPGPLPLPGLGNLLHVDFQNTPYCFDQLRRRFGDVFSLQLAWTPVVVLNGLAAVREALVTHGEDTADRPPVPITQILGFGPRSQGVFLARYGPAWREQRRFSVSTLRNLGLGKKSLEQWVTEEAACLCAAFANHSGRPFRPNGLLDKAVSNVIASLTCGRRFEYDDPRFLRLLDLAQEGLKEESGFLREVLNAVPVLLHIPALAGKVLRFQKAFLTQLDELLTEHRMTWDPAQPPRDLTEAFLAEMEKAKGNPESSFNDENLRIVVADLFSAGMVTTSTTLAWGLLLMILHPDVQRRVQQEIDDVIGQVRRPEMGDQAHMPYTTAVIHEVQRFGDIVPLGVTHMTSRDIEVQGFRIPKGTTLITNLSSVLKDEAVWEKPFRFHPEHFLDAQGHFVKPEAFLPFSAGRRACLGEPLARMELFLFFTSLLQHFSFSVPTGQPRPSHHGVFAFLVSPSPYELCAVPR
# Chain of Cytochrome P450 2C19 (P33261 whole entry): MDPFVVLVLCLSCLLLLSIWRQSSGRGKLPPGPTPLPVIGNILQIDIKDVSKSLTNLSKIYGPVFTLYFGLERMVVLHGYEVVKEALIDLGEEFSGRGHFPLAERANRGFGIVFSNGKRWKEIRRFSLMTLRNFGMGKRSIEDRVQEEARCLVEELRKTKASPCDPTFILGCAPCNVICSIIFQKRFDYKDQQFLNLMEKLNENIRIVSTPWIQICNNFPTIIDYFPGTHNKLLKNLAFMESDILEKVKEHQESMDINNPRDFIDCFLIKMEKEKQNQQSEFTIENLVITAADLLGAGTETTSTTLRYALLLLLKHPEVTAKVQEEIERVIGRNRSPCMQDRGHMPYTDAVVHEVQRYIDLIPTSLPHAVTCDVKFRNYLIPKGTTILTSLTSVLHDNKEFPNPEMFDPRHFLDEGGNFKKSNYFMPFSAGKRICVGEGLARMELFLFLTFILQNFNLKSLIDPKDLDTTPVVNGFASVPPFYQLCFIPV
smiles,measurement,setting,value
COc1cc2c(CCNC(C)=O)c[nH]c2cc1O,AC50,[1],31.6 µM (inconclusive)
same,IC50,[2],52.3 µM (active)
same,AC50,[3],15.8 µM (inconclusive)
same,AC50,[4],39.8 µM (inconclusive)
Cc1ccc(-n2c(S)nnc2-c2cc(C)n(C)n2)cc1,AC50,[1],28.2 µM (inconclusive)
FC(F)(F)c1cccc(-c2nc3nc(Cl)c(Cl)nc3[nH]2)c1,EC50,[5],7.96 µM (active)
same,EC50,[6],> 150 µM (not active)
same,AC50,[7],3.23 µM (active)
same,AC50,[3],5.01 µM (inconclusive)
same,EC50,[8],94.8 µM (active)
Cn1cc(CN2CCCC(C(=O)Nc3cccc(-c4cc5ccccc5[nH]4)c3)C2)cn1 (centres undefined),EC50,[9],42.9 µM (active)
same,IC50,[10],> 47.1 µM (inactive)
COCC1CCN(C(=O)CCc2nnc(C3(c4ccc(Cl)cc4)CCC3)o2)C1 (centres undefined),EC50,[5],> 150 µM (not active)
same,EC50,[6],> 150 µM (not active)
same,EC50,[8],> 150 µM (not active)
O=C(c1cccc(F)c1)N1CCC[C@@]2(CCN(Cc3nccs3)C2)C1,AC50,[1],12.6 µM (inconclusive)
same,AC50,[4],20 µM (inconclusive)
O=C(Nc1ccccc1)c1ccccc1OCc1cccc([N+](=O)[O-])c1,EC50,[9],> 53 µM (inactive)
same,IC50,[10],> 47.1 µM (inactive)
COc1cc(/C=C/C(=O)OCC(=O)NC(=O)NC(C)(C)C)ccc1O,IC50,[2],57.5 µM (active)
O=C(NCc1ccc2c(c1)OCO2)Nc1ccc(F)cc1,EC50,[5],> 150 µM (not active)
same,EC50,[6],> 150 µM (not active)
same,EC50,[8],> 150 µM (not active)
COc1cc(OC)c([C@H]2C=C(C)[C@H]3C[C@@H]2C3(C)C)c(OC)c1,EC50,[5],4.7 µM (active)
same,EC50,[6],63.3 µM (active)
same,EC50,[8],9.95 µM (active)
O=C(O)c1cc(-c2ccc3cc4c(cc3c2)OCO4)nc2ccccc12,AC50,[1],3.16 µM (inconclusive)
O=C(O)c1ccc(NCc2nc3cc4ccccc4cc3[nH]2)cc1,AC50,[1],5.01 µM (inconclusive)
Cc1cccc(N2C(=O)NC(=O)/C(=C\c3ccc(N4CCOCC4)cc3)C2=O)c1,EC50,[9],> 53 µM (inactive)
same,IC50,[10],> 47.1 µM (inactive)
Cc1cc(C)c(NC(=O)CSc2nnc(Cc3cccn3C)n2-c2ccc(F)cc2)c(C)c1,AC50,[1],2.51 µM (inconclusive)
same,AC50,[11],28.2 µM (inconclusive)
COCCn1c(=O)c(-c2cc(F)cc(F)c2)nc2cnc(N3CCN(C)CC3)nc21,AC50,[1],15.8 µM (inconclusive)
same,AC50,[12],39.8 µM (inconclusive)
Fc1ccccc1CNc1ccc(Cl)c(Cl)c1,EC50,[5],11.4 µM (active)
same,EC50,[6],> 150 µM (not active)
same,EC50,[8],63.8 µM (active)
COCCCn1c(=S)[nH]c2sc3c(c2c1=O)CCCC3,IC50,[2],32.9 µM (active)
COc1ccc(Cc2nnc(NC(=O)Nc3ccc(C)cc3)s2)cc1OC,EC50,[9],> 53 µM (inactive)
same,IC50,[10],> 47.1 µM (inactive)
Cc1cc(C(=O)Nc2ccc3c(c2)OCCO3)nn1C(C)(C)C,EC50,[9],> 53 µM (inactive)
same,IC50,[10],> 47.1 µM (inactive)
O=C(O)/C=C\C(=O)Nc1ccc2c(c1)C(=O)c1cc(F)ccc1-2,AC50,[1],0.794 µM (inconclusive)
COC(=O)c1sccc1-c1ccc(C(=O)Nc2cccnc2)o1,AC50,[1],0.282 µM (inconclusive)
C=CCOc1ccccc1CN1CCCN(C)CC1,IC50,[2],178 µM (active)
Cc1ccccc1OCC(=O)NC(=S)Nc1ccc(N2CCOCC2)c(Cl)c1,AC50,[1],12.6 µM (inconclusive)
same,AC50,[12],15.8 µM (inconclusive)
same,AC50,[3],14.1 µM (inconclusive)
Cn1cccc1C(=O)N1CCC[C@@]2(CCN(Cc3ccccc3)C2)C1,AC50,[1],10 µM (inconclusive)
same,AC50,[3],5.01 µM (inconclusive)
CC(C)NC(=S)N(CCc1ccncc1)C(C)C,EC50,[9],> 53 µM (inactive)
same,IC50,[10],> 47.1 µM (inactive)
Cc1cc(C)c(NC(=O)C(C)Sc2nnc(-c3ccco3)n2-c2ccccc2)c(C)c1 (centres undefined),AC50,[1],22.4 µM (inconclusive)
COc1cc(/C=C2/C(=N)N3C=C(C)SC3=NC2=O)ccc1O,IC50,[2],71.9 µM (active)
COc1ccc(NC(=O)N2CCC3(CC2)CCN(C(=O)c2csnn2)CC3)cc1,AC50,[1],6.31 µM (inconclusive)
same,AC50,[3],12.6 µM (inconclusive)
COc1ccc(S(=O)(=O)Nc2c(C)n(C)n(-c3ccccc3)c2=O)cc1C(=O)O,EC50,[9],> 53 µM (inactive)
same,IC50,[10],> 47.1 µM (inactive)
O=C(NCc1cn2ccccc2n1)C1CCC(=O)N(Cc2ccccc2F)C1 (centres undefined),EC50,[9],> 53 µM (inactive)
same,IC50,[10],> 47.1 µM (inactive)
CC12CCC(C/C1=N\OC(=O)c1c(F)cccc1F)C2(C)C (centres undefined),EC50,[9],> 53 µM (inactive)
same,IC50,[10],> 47.1 µM (inactive)
CCCCN(C(=O)CSc1nnc[nH]1)c1c(N)n(Cc2ccccc2)c(=O)[nH]c1=O,EC50,[9],> 53 µM (inactive)
same,IC50,[10],> 47.1 µM (inactive)
CC1(C2CC2)NC(=O)N(CC(=O)Nc2ccccc2F)C1=O (centres undefined),EC50,[9],> 53 µM (inactive)
same,IC50,[10],> 47.1 µM (inactive)
C/C(=N/NC(=O)CNC(=O)c1cccnc1)c1cccc([N+](=O)[O-])c1,EC50,[5],> 150 µM (not active)
same,EC50,[6],> 150 µM (not active)
same,EC50,[8],> 150 µM (not active)
CC(C)(C)N/N=C1\CC(c2ccccc2)Oc2ccccc21 (centres undefined),EC50,[5],6.48 µM (active)
same,EC50,[6],7.08 µM (active)
same,EC50,[8],> 150 µM (not active)
COc1ccc(COC(=O)N/N=C(\C)CC(=O)Nc2c(C)cc(C)cc2C)cc1,AC50,[1],22.4 µM (inconclusive)
same,AC50,[11],25.1 µM (inconclusive)
